Laboratory results: PubChem BioAssay (NCI)
“And” between values parts separate entries of the source, which are not always exact repeats. Equal values may be shown once.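 Where inhibition never reached the appropriate level, the endpoint shown equals the highest concentration tested. Otherwise, values were interpolated linearly from a five-concentration, 48-hour dose response in 96-well plates. GI50 = concentration required for 50% inhibition of growth. TGI: total growth inhibition.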

What was measured:
Assay in all cases: NCI anticancer screen, dose series, 48 h
SN12C renal = test system: SN12C renal
HS 578T breast = test system: HS 578T breast
RPMI-8226 leukemia = test system: RPMI-8226 leukemia
SNB-19 CNS = test system: SNB-19 CNS
SF-295 CNS = test system: SF-295 CNS
BT-549 breast = test system: BT-549 breast
MALME-3M melanoma = test system: MALME-3M melanoma
786-0 renal = test system: 786-0 renal
LOX IMVI melanoma = test system: LOX IMVI melanoma
COLO 205 colon = test system: COLO 205 colon
HOP-92 NSCLC = test system: HOP-92 NSCLC
SW-620 colon = test system: SW-620 colon
PC-3 prostate = test system: PC-3 prostate
OVCAR-4 ovarian = test system: OVCAR-4 ovarian
MDA-MB-231 breast = test system: MDA-MB-231 breast
DU-145 prostate = test system: DU-145 prostate
SF-539 CNS = test system: SF-539 CNS
HCT-15 colon = test system: HCT-15 colon
OVCAR-8 ovarian = test system: OVCAR-8 ovarian
MOLT-4 leukemia = test system: MOLT-4 leukemia
A549 NSCLC = test system: A549 NSCLC
ACHN renal = test system: ACHN renal
HOP-62 NSCLC = test system: HOP-62 NSCLC
MDA-MB-435 = test system: MDA-MB-435
NCI-H522 lung = test system: NCI-H522 lung
EKVX NSCLC = test system: EKVX NSCLC
K-562 leukemia = test system: K-562 leukemia
HCC-2998 colon = test system: HCC-2998 colon
RXF 393 renal = test system: RXF 393 renal
MCF7 breast = test system: MCF7 breast
SR leukemia = test system: SR leukemia
NCI-H226 lung = test system: NCI-H226 lung
UO-31 renal = test system: UO-31 renal
U251 CNS = test system: U251 CNS
SK-MEL-5 melanoma = test system: SK-MEL-5 melanoma
M14 melanoma = test system: M14 melanoma
UACC-62 melanoma = test system: UACC-62 melanoma
HCT-116 colon = test system: HCT-116 colon
T-47D breast = test system: T-47D breast
OVCAR-3 ovarian = test system: OVCAR-3 ovarian
HL-60(TB) leukemia = test system: HL-60(TB) leukemia
HT29 colon = test system: HT29 colon
CAKI-1 renal = test system: CAKI-1 renal
SK-OV-3 ovarian = test system: SK-OV-3 ovarian
CCRF-CEM leukemia = test system: CCRF-CEM leukemia
NCI-H460 lung = test system: NCI-H460 lung
SNB-75 CNS = test system: SNB-75 CNS
SK-MEL-28 melanoma = test system: SK-MEL-28 melanoma
NCI/ADR-RES ovarian = test system: NCI/ADR-RES ovarian
A498 renal = test system: A498 renal
NCI-H23 lung = test system: NCI-H23 lung
TK-10 renal = test system: TK-10 renal
SF-268 CNS = test system: SF-268 CNS
SK-MEL-2 melanoma = test system: SK-MEL-2 melanoma
IGROV1 ovarian = test system: IGROV1 ovarian
OVCAR-5 ovarian = test system: OVCAR-5 ovarian
UACC-257 melanoma = test system: UACC-257 melanoma
KM12 colon = test system: KM12 colon

## CS(=O)(=O)Nc1cc(-c2ccc3ncnc(Nc4ccc(F)c(Cl)c4)c3c2)cnc1Cl
SN12C renal
  GI50: 389 nM
  TGI: 12700 nM
HS 578T breast
  GI50: 182 nM and 190 nM
  TGI: 2690 nM
RPMI-8226 leukemia
  GI50: 444 nM and 598 nM
  TGI: 2670 nM and 3400 nM
SNB-19 CNS
  GI50: 673 nM and 596 nM
  TGI: 10100 nM and 7920 nM
SF-295 CNS
  GI50: 612 nM and 606 nM
  TGI: 4110 nM and 3850 nM
BT-549 breast
  GI50: 307 nM and 287 nM
  TGI: 3360 nM and 2680 nM
MALME-3M melanoma
  GI50: 191 nM and 179 nM
  TGI: 1130 nM and 1560 nM
786-0 renal
  GI50: 638 nM and 671 nM
  TGI: 5450 nM and 6650 nM
LOX IMVI melanoma
  GI50: 503 nM and 468 nM
  TGI: 3490 nM and 2780 nM
COLO 205 colon
  GI50: 562 nM and 1060 nM
  TGI: 2190 nM and 4530 nM
HOP-92 NSCLC
  GI50: 162 nM and 78.2 nM
  TGI: 893 nM and 797 nM
SW-620 colon
  GI50: 741 nM and 1010 nM
  TGI: 11200 nM and 11900 nM
PC-3 prostate
  GI50: 594 nM and 562 nM
  TGI: 5200 nM and 7020 nM
OVCAR-4 ovarian
  GI50: 1220 nM and 1470 nM
  TGI: 10800 nM and 10400 nM
MDA-MB-231 breast
  GI50: 980 nM and 1070 nM
  TGI: 3210 nM and 5920 nM
DU-145 prostate
  GI50: 738 nM and 766 nM
  TGI: 11100 nM and 13600 nM
SF-539 CNS
  GI50: 431 nM and 541 nM
  TGI: 2520 nM and 3330 nM
HCT-15 colon
  GI50: 559 nM and 542 nM
  TGI: 11200 nM and 11600 nM
OVCAR-8 ovarian
  GI50: 1680 nM and 1720 nM
  TGI: 12900 nM and > 40400 nM
MOLT-4 leukemia
  GI50: 311 nM and 284 nM
  TGI: 1810 nM and 2020 nM
A549 NSCLC
  GI50: 1140 nM and 1260 nM
  TGI: 4670 nM and 5810 nM
ACHN renal
  GI50: 404 nM and 575 nM
  TGI: 13800 nM and > 42500 nM
HOP-62 NSCLC
  GI50: 295 nM and 1120 nM
  TGI: 9010 nM and 27100 nM
MDA-MB-435
  GI50: 605 nM and 537 nM
  TGI: 7030 nM and 4960 nM
NCI-H522 lung
  GI50: 400 nM and 815 nM
  TGI: 3900 nM and 9800 nM
EKVX NSCLC
  GI50: 340 nM and 352 nM
  TGI: 3190 nM and 2610 nM
K-562 leukemia
  GI50: 1710 nM
  TGI: > 82400 nM
HCC-2998 colon
  GI50: 1210 nM
  TGI: 4050 nM
RXF 393 renal
  GI50: 563 nM and 310 nM
  TGI: 4070 nM and 1710 nM
MCF7 breast
  GI50: 216 nM and 227 nM
  TGI: 11400 nM and 11800 nM
SR leukemia
  GI50: 577 nM and 2200 nM
  TGI: 5560 nM and 43000 nM
NCI-H226 lung
  GI50: 1630 nM and 1330 nM
  TGI: 22900 nM and 13700 nM
UO-31 renal
  GI50: 204 nM
  TGI: 1690 nM
U251 CNS
  GI50: 511 nM and 856 nM
  TGI: 2570 nM and 9190 nM
SK-MEL-5 melanoma
  GI50: 410 nM
  TGI: 1690 nM
M14 melanoma
  GI50: 477 nM and 718 nM
  TGI: 4530 nM and 6290 nM
UACC-62 melanoma
  GI50: 255 nM
  TGI: 1560 nM
HCT-116 colon
  GI50: 783 nM and 946 nM
  TGI: 3220 nM and 5220 nM
T-47D breast
  GI50: 32.3 nM and 90.1 nM
  TGI: 437 nM and 892 nM
OVCAR-3 ovarian
  GI50: 360 nM and 616 nM
  TGI: 1920 nM and 5330 nM
HL-60(TB) leukemia
  GI50: 514 nM and 302 nM
  TGI: 14700 nM and 3350 nM
HT29 colon
  GI50: 369 nM and 503 nM
  TGI: 6820 nM and 7810 nM
CAKI-1 renal
  GI50: 455 nM and 326 nM
  TGI: 9550 nM and 2230 nM
SK-OV-3 ovarian
  GI50: 255 nM and 317 nM
  TGI: 1340 nM and 2710 nM
CCRF-CEM leukemia
  GI50: 378 nM and 309 nM
  TGI: 11900 nM and 28100 nM
NCI-H460 lung
  GI50: 753 nM and 980 nM
  TGI: 11500 nM and 12900 nM
SNB-75 CNS
  GI50: 132 nM and 69.7 nM
  TGI: 1280 nM and 812 nM
SK-MEL-28 melanoma
  GI50: 345 nM
  TGI: 9610 nM
NCI/ADR-RES ovarian
  GI50: 2060 nM and 2070 nM
  TGI: 30500 nM and 20000 nM
A498 renal
  GI50: 199 nM and 130 nM
  TGI: 664 nM and 555 nM
NCI-H23 lung
  GI50: 484 nM and 570 nM
  TGI: 14700 nM and 10600 nM
TK-10 renal
  GI50: 261 nM
  TGI: 2280 nM
SF-268 CNS
  GI50: 510 nM and 675 nM
  TGI: 8050 nM and 20100 nM
SK-MEL-2 melanoma
  GI50: 289 nM and 441 nM
  TGI: 1530 nM and 2320 nM
IGROV1 ovarian
  GI50: 114 nM
  TGI: 495 nM
OVCAR-5 ovarian
  GI50: 214 nM and 533 nM
  TGI: 4930 nM and 8780 nM
UACC-257 melanoma
  GI50: 503 nM and 706 nM
  TGI: 7550 nM and 10400 nM
KM12 colon
  GI50: 1240 nM and 1710 nM
  TGI: 3390 nM and 8130 nM
